The record followed here is patent US11712466B2, “Vaccine composition” (TOHOKU UNIVERSITY, priority 2017, dated 2023).

Assay [1] deals with Lewis lung cancer cells (LLC). Kind of assay: Subcutaneous implant model, tumor growth inhibitory effect (LLC). The note with it: immunized C57BL/6J mice, cells implanted s.c. on day 29, measured 14 days after implantation. It counts as in vivo, mouse. As for the experimental part:
After 2 weeks from the administration of each peptide vaccine and incomplete Freund's adjuvant in Example 1 (on day 29 after the initial peptide vaccine administration), mouse-derived tumor cells were implanted in an immunized mouse, whereby a subcutaneous implant model was prepared. Specifically, mouse lung cancer cells (Lewis lung cancer cells (LLC)) or mouse melanoma cells (B16F1) (all have C57BL/6J as a genetic background) cultured in a RPMI+10% FBS medium were collected by centrifugation, and a cell suspension (1.0×10^8 cells/mL) was prepared with a serum-free medium, and 0.1 mL (1.0×10^7 cells/animal) of the cell suspension was implanted in a right axillary subcutaneous region of a mouse using a 27G injection needle and a syringe, whereby a subcutaneous implant model of tumor cells was prepared.

For assay [2], the system named is antigen peptide (peptide-conjugated BSA). Kind of assay: Antibody titer in blood of immunized mice by ELISA against antigen peptide. The assay is classed as in vivo, mouse. From the text: C57BL/6J male mice aged 8 weeks were purchased from Charles River Laboratories Japan, Inc. After the delivery, the mice were reared in an environment where the room temperature and the light and dark cycles were maintained, and were provided with feed and water ad libitum. As a candidate sequence leading to activation of helper T cells by MHC class II, two peptide sequences: MTGSAADTHR (SEQ ID NO: 4; hereinafter, a peptide composed of the amino acid sequence is referred to as “MTG peptide”) and RRRQASPPRR (SEQ ID NO: 5; hereinafter, a peptide composed of the amino acid sequence is referred to as “RRR peptide”), each of which is not common to VASH1 in the VASH2 sequence were selected (FIG. 1). With respect to these peptides, peptide vaccines using KLH as a carrier were constructed. Note that for the conjugation of each peptide with KLH, a glutaraldehyde method was used. When the amount of the peptide introduced into KLH was measured for each of the obtained peptide vaccines, the amount of MTG was 66 to 70 nmol/mg of the conjugate, and the amount of RRR was 62 to 76 nmol/mg of the conjugate. Subsequently, 5 μg of KLH (control) and 20 μg of each of the KLH-antigen complexes were prepared with physiological saline so that the total amount was 50 μL, respectively, whereby KLH-mixed solutions were obtained. To each of the KLH-mixed solutions (50 μL), an equal amount of complete Freund's adjuvant was added. The obtained mixture was subcutaneously administered to the mice, whereby initial immunization was carried out. After 2 weeks from the administration, booster immunization was carried out by subcutaneously administering a mixture of each of the KLH-mixed solutions (50 μL) and an equal amount of incomplete Freund's adjuvant to the mice. Further, after 2 weeks from the booster immunization (after a total of 4 weeks), an increase in the antibody titer in the blood of each of the immunized mice was verified by ELISA.
The measurement of the antibody titer by ELISA was carried out as follows. After 2 weeks from the booster immunization (after a total of 4 weeks), the blood was collected from the facial vein of each of the immunized mice, and the serum separated from the blood was subjected to ELISA. By using 50 mM carbonate buffer, peptide-conjugated BSA was prepared at 10 μg/mL, and further a recombinant VASH2 protein was prepared at 1 μg/mL, each of which was added at 50 μL/well, and the resultant was left to stand overnight at 4° C. After the solution in each well was removed, 5% skim milk was added at 150 μL/well. […] After 30 minutes, the reaction was stopped by adding 0.5 N H2SO4 at 50 μL/well, and an absorbance (450 nm) was measured using a microplate reader.
(In general: An ELISA detects its analyte on a solid surface through an enzyme-linked reagent.)

Assay [3] deals with RH30 rhabdomyosarcoma cells. The experiment in a line: In vitro wound migration method with serum of immunized mouse (RH30). The assay is classed as cell-based, human. The following applies: 1% serum of mouse with increased anti-VASH2 titer after vaccine; 24 and 48 hours. How it is done:
By using the serum derived from a mouse in which an increase in the antibody titer against the recombinant human VASH2 protein by administration of the MTG peptide vaccine was confirmed, the effect on the migration ability of various types of cancer cells was examined by an in vitro wound migration method. Mouse-derived Lewis lung cancer cells and human-derived RH30 rhabdomyosarcoma cells were added to a 6-well plate at 1.0×10^6 cells each. After 24 hours, a formed cell monolayer was wounded and linearly exfoliated. After the exfoliation, the medium was replaced with fresh 0.5% FBS+RPMI medium supplemented with 1% mouse serum. At 24 hours and 48 hours after the medium replacement, the image of the cell monolayer was captured using an IX71 inverted microscope (manufactured by Olympus Corporation), and a cell migration distance of each time zone was analyzed using ImageJ software. The analysis was carried out according to the following formula. Cell migration distance (%)={(A−B)/A}×100
A: Width of initial wound, B: Width of wound after 24 hours or 48 hours

Entries after “also recorded” stand apart in the source; their conditions may differ. Ends that are not written are not given here.

With “MTG peptide vaccine: MTG peptide MTGSAADTHR (SEQ ID NO: 4) conjugated with KLH as carrier by a glutaraldehyde method (also: conjugated with KLH by glutaraldehyde)”, the “tumor size (tumorigenesis), Lewis lung cancer cells” value in assay [1] is “marked inhibition of tumorigenesis; also recorded: marked inhibition of tumor growth”. For the same substance, the “antibody titer against the antigen peptide” value in assay [2] (Example 1: C57BL/6J mice, KLH-antigen complex s.c., Freund's adjuvant, serum 2 weeks after booster (total 4 weeks)) was “significant concentration-dependent increase”. Further, the “production of an antibody specific to the antigen peptide” value in assay [2] (Example 6: C57BL/6J mice, 20 or 100 μg, Alhydrogel, day 28) is on record as “promotes the production of an antibody”. Also, in assay [2] (Example 8: C57BL/6Jx129SVJ mice, 100 μg, Alhydrogel, day 28), the “induced antibody binding to the antigen peptide (MTG)” value is “induced an antibody that binds to both”. Also, in assay [3], the “cell migration, human-derived RH30 rhabdomyosarcoma cells” value is recorded as “migration inhibitory effect”.
